From US6867320B2, “Substituted phenylalkanoic acid derivatives and use thereof” (Asahi Kasei Pharma Corporation, priority 2002, dated 2005)

Assays:
[1] = test system: IgE-stimulated footpad edema; assay: Mouse IgE-stimulated footpad edema reaction; type: in vivo; conditions: C57BL/6 male mice, oral 0.1 to 500 mg/kg, compared with positive control group
Procedure: 4. Suppressing Effect on Mouse IgE-stimulated Footpad Edema Reaction
Suppression on footpad edema caused by IgE antibody as an allergic stimulant was studied by the following method. Groups of C57BL/6 male mice (9- to 11-week old) each consisting of five mice were used for the test. Anti-DNP-BSA IgE serum was subcutaneously administered in a volume of 20 μl to right hind leg footpad of each mouse one day before the test. A test compound was suspended or dissolved in purified water containing 0.5% methylcellulose and orally administered to the test animals at 0.1 to 500 mg/0.2 ml/kg. To the control group, purified water containing 0.5% methylcellulose was administered in a similar manner, which was not added with the test compound. Two hours after the administration of the test compound, 0.2 ml of a solution of DNP-BSA dissolved in physiological saline (Otsuka Pharmaceutical) at 2.5 μg/ml was intravenously administered. The thickness of right hind leg footpad was measured by using a digital thickness gauge (MITSUTOYO) 10, 15, 20, and 30 minutes after the administration of DNP-BSA. A difference of the thickness of footpad measured above and the thickness before the administration of the test compound measured beforehand was regarded as a thickness of edema.
For the thickness of the edema at 10, 15, 20 and 30 minutes after the DNP-BSA administration, a graph was prepared indicating time in abscissa and the edema thickness in ordinate, and edema thickness AUC […] was obtained by calculation according to the following equation. Edema thickness AUC (mm·minute)=1/2×10×A+5×(A+B)/2+5×(B+C)/2+10×(C+D)/2 • A: Edema thickness 10 minutes after DNP-BSA administration • B: Edema thickness 15 minutes after DNP-BSA administration • C: Edema thickness 20 minutes after DNP-BSA administration • D: Edema thickness 30 minutes after DNP-BSA administration
A suppressing ratio on edema of a test compound was obtained by calculation in accordance with the following equation. Edema suppression ratio (%)=[1−B/A]×100 • A: Edema thickness AUC of positive control • B: Edema thickness AUC of test compound administered group (2) Measurement Results

[2] = test system: LTB4 production from IgE-stimulated RBL-2H3 cells; assay: Suppressing action on LTB4 production from IgE-stimulated RBL-2H3 cells; type: cell-based; conditions: Rattus norvegicus, 10 min, IgE/DNP-BSA stimulated RBL-2H3 cells, read-out: LTB4 production suppression ratio
In short: (§1)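 Rat RBL-2H3 mastocytoma cells, sensitized 30 min with anti-DNP-BSA IgE, then given test compound in 0.5% FBS medium and stimulated with DNP-BSA (100 ng/ml final). Supernatant PGD2 and LTB4 were measured by EIA after 10 min. Suppression ratio is calculated against unstimulated and stimulant-only controls.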

[3] = test system: PGE2 production from IL-1β-stimulated MG-63 cells; assay: Suppressing action on PGE2 production from IL-1β-stimulated MG-63 cells; type: cell-based; conditions: Homo sapiens, IL-1β 1 ng/ml, 18 hours, read-out: PGE2 production suppression ratio
In short: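 Human osteosarcoma MG-63 cells (2×10^4/well) switched to 0.5% FBS medium, treated with compound, then stimulated with IL-1β at 1 ng/ml final for 18 h. Supernatant PGE2 measured by EIA; suppression ratio calculated against stimulated and unstimulated wells.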

[4] = test system: PGD2 production from IgE-stimulated RBL-2H3 cells; assay: Suppressing action on PGD2 production from IgE-stimulated RBL-2H3 cells; type: cell-based; conditions: Rattus norvegicus, 10 min, IgE/DNP-BSA stimulated RBL-2H3 cells, read-out: PGD2 production suppression ratio
In short: as §1

[5] = test system: zymosan-stimulated footpad edema; assay: Mouse zymosan-stimulated footpad edema reaction; type: in vivo; conditions: ICR female mice, oral 0.1 to 500 mg/kg, compared with positive control group
In short: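 Female ICR mice (6–7 weeks, n=8) dosed orally at 0.1 to 500 mg/kg in 0.5% methylcellulose; 1 h later zymosan (1 mg/ml, 0.02 ml) injected s.c. into right hind footpad. Edema volume at 1 and 2 h gave AUC to 2 h; suppression (%) calculated against positive control AUC.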

SMILES	suppression of footpad edema caused by IgE stimulation [1]	inhibition at 0.4 µM [2] [%]	inhibition at 0.4 µM [3] [%]	inhibition at 0.4 µM [4] [%]	suppression of footpad edema caused by zymosan [5]
O=C(O)CCc1ccc(OCCCc2ccccc2)c(-c2ccc3[nH]ccc3c2)c1 [Compound 220, 3-[3-(1H-indol-5-yl)-4-(3-phenylpropyloxy)phenyl]propionic acid]	suppressed the footpad edema	≥ 50	≥ 50	≥ 50	suppressed footpad edema
COc1ccccc1CCOc1ccc(CCC(=O)O)cc1-c1ccc2[nH]ccc2c1 [Compound 205, 3-{3-(1H-indol-5-yl)-4-[2-(2-methoxyphenyl)ethyloxy]phenyl}propionic acid]	suppressed the footpad edema	–	≥ 50	–	suppressed footpad edema
O=C(O)CCc1ccc(OCCc2ccc3ccccc3c2)c(-c2ccc3[nH]ccc3c2)c1 [Compound 217, 3-{4-[2-(naphthalen-2-yl)ethyloxy]-3-(1H-indol-5-yl)phenyl}propionic acid]	suppressed the footpad edema	≥ 50	≥ 50	≥ 50	–
O=C(O)CCc1ccc(OCCc2ccccc2Cl)c(-c2ccc3[nH]ccc3c2)c1 [Compound 209, 3-{4-[2-(2-chlorophenyl)ethyloxy]-3-(1H-indol-5-yl)phenyl}propionic acid]	suppressed the footpad edema	–	≥ 50	–	suppressed footpad edema
Cn1ccc2c(-c3cc(CCC(=O)O)ccc3OC3CCCCC3)cccc21 [Compound 126, 3-[4-cyclohexyloxy-3-(1-methyl-1H-indol-4-yl)phenyl]propionic acid]	suppressed the footpad edema	–	≥ 50	–	suppressed footpad edema
O=C(O)CCc1ccc(OCCc2ccc(F)cc2)c(-c2ccc3ccccc3c2)c1 [Compound 057, 3-{4-[2-(4-fluorophenyl)ethyloxy]-3-(naphthalen-2-yl)phenyl}propionic acid]	suppressed the footpad edema	–	≥ 50	–	suppressed footpad edema
O=C(O)CCc1ccc(OCCc2cccc(F)c2)c(-c2ccc3ccccc3c2)c1 [Compound 055, 3-{4-[2-(3-fluorophenyl)ethyloxy]-3-(naphthalen-2-yl)phenyl}propionic acid]	suppressed the footpad edema	–	≥ 50	–	suppressed footpad edema
Cc1ccccc1CCOc1ccc(CCC(=O)O)cc1-c1ccc2[nH]ccc2c1 [Compound 200, 3-{3-(1H-indol-5-yl)-4-[2-(2-methylphenyl)ethyloxy]phenyl}propionic acid]	suppressed the footpad edema	–	≥ 50	–	suppressed footpad edema
O=C(O)CCc1ccc(OCc2cccc(F)c2)c(-c2ccc3ccccc3c2)c1 [Compound 033, 3-[4-(3-fluorophenylmethyloxy)-3-(naphthalen-2-yl)phenyl]propionic acid]	suppressed the footpad edema	–	≥ 50	–	suppressed footpad edema
O=C(O)CCc1ccc(OCc2cccc(Cl)c2Cl)c(-c2ccc3[nH]ccc3c2)c1 [Compound 160, 3-[4-(2,3-dichlorophenylmethyloxy)-3-(1H-indol-5-yl)phenyl]propionic acid]	suppressed the footpad edema	≥ 50	≥ 50	≥ 50	–
O=C(O)CCc1ccc(OCc2ccc(Cl)c(Cl)c2)c(-c2ccc3[nH]ccc3c2)c1 [Compound 166, 3-[4-(3,4-dichlorophenylmethyloxy)-3-(1H-indol-5-yl)phenyl]propionic acid]	suppressed the footpad edema	≥ 50	≥ 50	≥ 50	–
O=C(O)CCc1ccc(OCCSc2ccccc2)c(-c2ccc3[nH]ccc3c2)c1 [Compound 228, 3-{3-(1H-indol-5-yl)-4-[2-(phenylthio)ethyloxy]phenyl}propionic acid]	suppressed the footpad edema	–	≥ 50	–	suppressed footpad edema
O=C(O)CCc1ccc(OCc2ccccc2-c2ccccc2)c(-c2ccc3[nH]ccc3c2)c1 [Compound 140, 3-{4-[(biphenyl-2-yl)methyloxy]-3-(1H-indol-5-yl)phenyl}propionic acid]	suppressed the footpad edema	–	≥ 50	–	suppressed footpad edema
Nc1ccc2ccc(-c3cc(CCC(=O)O)ccc3OCC3CCCC3)cc2c1 [Compound 014, 3-[3-(7-aminonaphthalen-2-yl)-4-cyclopentylmethyloxyphenyl]propionic acid]	suppressed the footpad edema	≥ 50	≥ 50	≥ 50	–
CCC(CC)COc1ccc(CCC(=O)O)cc1-c1ccc2[nH]ccc2c1 [Compound 183, 3-[4-(2-ethylbutyloxy)-3-(1H-indol-5-yl)phenyl]propionic acid]	suppressed the footpad edema	–	≥ 50	–	suppressed footpad edema
O=C(O)CCc1ccc(OCC2CCCCC2)c(-c2cccc3[nH]ccc23)c1 [Compound 116, 3-[4-cyclohexylmethyloxy-3-(1H-indol-4-yl)phenyl]propionic acid]	suppressed the footpad edema	–	≥ 50	–	suppressed footpad edema
O=C(O)CCc1ccc(OCCOc2ccc(Cl)cc2)c(-c2ccc3[nH]ccc3c2)c1 [Compound 226, 3-{4-[2-(4-chlorophenyloxy)ethyloxy]-3-(1H-indol-5-yl)phenyl}propionic acid]	suppressed the footpad edema	–	≥ 50	–	suppressed footpad edema
O=C(O)CCc1ccc(OCc2cccc3ccccc23)c(-c2ccc3[nH]ccc3c2)c1 [Compound 190, 3-{3-(1H-indol-5-yl)-4-[(naphthalen-1-yl)methyloxy]phenyl}propionic acid]	suppressed the footpad edema	≥ 50	≥ 50	≥ 50	–
Cc1cccc(CCOc2ccc(CCC(=O)O)cc2-c2ccc3[nH]ccc3c2)c1 [Compound 202, 3-{3-(1H-indol-5-yl)-4-[2-(3-methylphenyl)ethyloxy]phenyl}propionic acid]	suppressed the footpad edema	–	≥ 50	–	suppressed footpad edema
O=C(O)CCc1ccc(OCCc2ccccc2C(F)(F)F)c(-c2ccc3[nH]ccc3c2)c1 [Compound 214, 3-[3-(1H-indol-5-yl)-4-{2-[2-(trifluoromethyl)phenyl]-ethyloxy}phenyl]propionic acid]	suppressed the footpad edema	≥ 50	≥ 50	≥ 50	–
